Test results taken from patent publication US6057314A, “Low molecular weight bicyclic thrombin inhibitors” (Biochem Pharma Inc., priority 1997, dated 2000).
Like-named read-outs stand apart in the source and are kept apart here.

What was measured:
human thrombin [1] = biological target: T1, human thrombin (Homo sapiens, UniProt P00734); experiment: Inhibition of amidolytic activity of human thrombin (Ki, fluorogenic substrate Tos-Gly-Pro-Arg-AMC); format: biochemical
Experimental: In an assay to determine the inhibitory dissociation constant, Ki, for a given compound, a chromogenic or fluorogenic substrate of thrombin would be added to a solution containing a test compound and thrombin; the resulting catalytic activity of the enzyme would be spectrophotometrically determined. This type of assay is well known to those skilled in the art.
Determination of K1 Values for Heterocyclics
The steady-state velocity was then measured for a few minutes. The compounds of this invention were also pre-incubated with thrombin for 20 minutes at room temperature before adding the substrate.

[2] = system: washed platelets from rats; experiment: Platelet secretion (14C-serotonin, 5-HT, release from washed rat platelets, thrombin stimulated); format: cell-based; settings: Table 1, human thrombin 0.1 IU/mL, read-out: Antiplatelet activity, 5-HT Secretion (IC50)
Experimental: Platelet Aggregation and Secretion Rat blood was collected into ACD (6/1 v/v) by cardiac puncture. Suspensions of washed platelets were prepared as described by […] et al, (Br. J. Haematol. 1970, 19:7 and Proc. Soc. Exp. Biol. Med. 1971, 136:1021). […] Platelet counts were adjusted to 5000,000/ μL. To permit measurement of the extent of release of the contents of the dense granules, the platelets were labelled in the first washing solution with ^14 C-serotonin (5-HT) (1 μCi/10 mL of washing fluid) and release of ^14 C-serotonin was determined as described in Holmsen et al, (Enzymology, 1989, 169:206). […] (5 μM final conc.) was added to present the reuptake of released serotonin. Platelet aggregation was recorded at 37° C. in an aggregometer (BioData PAP-4) at a stirring speed of 1,100 rpm by measuring the variations of light transmission. […] IC50 values represent the concentration that was necessary to inhibit platelet aggregation or secretion to 50% of the control.

[3] = system: washed platelets from rats; experiment: Platelet aggregation (washed rat platelets, thrombin stimulated); format: cell-based; settings: Table 1, suspension of washed platelets from rats, human thrombin 0.1 IU/mL, read-out: Antiplatelet activity, Aggregation (IC50)
Experimental: Platelet Aggregation and Secretion Rat blood was collected into ACD (6/1 v/v) by cardiac puncture. Suspensions of washed platelets were prepared as described by […] et al, (Br. J. Haematol. 1970, 19:7 and Proc. Soc. Exp. Biol. Med. 1971, 136:1021). […] Platelet counts were adjusted to 5000,000/ μL. Platelet aggregation was recorded at 37° C. in an aggregometer (BioData PAP-4) at a stirring speed of 1,100 rpm by measuring the variations of light transmission. […] IC50 values represent the concentration that was necessary to inhibit platelet aggregation or secretion to 50% of the control.

human thrombin [4] = biological target: T1, human thrombin; experiment: Fibrin clot assay (human plasma, turbidity); format: biochemical; settings: Table 1, 1 nM thrombin, at 30 minutes
Experimental: The fibrin clot assay was performed essentially as described by Krtenansky et al, FEBS, 1987, 211:10. A serial dilution of the inhibitor was prepared in 50 mM tri HCl buffer (pH 7.8 at 23° C.) containing 0.1 M NaCl and 0.1% (w/v) polyethylene glycol 8000. Human plasma (60 μL, collected in 3.8% sodium citrate, blood/anticoagulate 9:1) was added to microtiter wells (microtiter plate, Falcon) containing 100 μL of various inhibitor dilutions. The solution was mixed after which 50 μL of human thrombin (1 nM final conc.) was added and mixed for 15 seconds. The turbidity of the clot was immediately monitored by microplate autoreader (Dynateck MR 5000) at 405 nm and recorded every 3 min. The maximal turbidity in the absence of inhibitors was reached within 60 min. IC50 values were calculated at 30 minutes as the inhibitor concentration that gave half the optical density of the control.

human thrombin [5] = biological target: T1, human thrombin; experiment: dTT assay (fibrin clotting assay, human thrombin and bovine fibrinogen); format: biochemical; settings: concentration required to double the clotting time
Description: The clotting time was plotted against the inhibitor concentrations and the IC50 was estimated as the inhibitor concentration required to double the clotting time relative to the control.

carotid artery in rats = experiment: FeCl3 induced carotid arterial injury model (arterial thrombosis) in rats, time to occlusion; format: in vivo, rat (Sprague-Dawley); settings: Table 2
Experimental: Arterial Thrombosis Model
FeCl3 Induced Carotid Arterial Injury Model
Animals were laid on a 37° C. heating pad. The carotid artery was exposed through a midline cervical incision. Careful blunt dissection was used to isolate the vessel from the carotid sheath. […] A temperature probe (Physitemp*MT23/3) was placed between one of the pieces of tubing and the artery. Injury was induced by topical application on the carotid artery above the temperature probe of a small disc (3 mm dia.) of Whatman* No. 1 filter paper previously dipped in a 35% solution of FeCl3 […]. The vessel temperature was monitored for 60 minutes after application of FeCl3 as an indication of blood flow.
The time between the FeCl3 application and the time at which the vessel temperature decreased abruptly (>2.4° C.) was recorded as the time to occlusion of the vessel. Inhibitor compounds were given as an iv bolus (mg/kg) followed immediately by an iv infusion (μg/kg/min. via femoral vein). The dose of inhibitor needed to double the time to occlusion in comparison to control animals in which injury was induced in the absence of inhibitor was determined.

[6] = Table 1, read-out: Ki (inhibitory dissociation constant for human thrombin)

Structure (SMILES)	Ki (human thrombin [1]; [6]) [µM]	IC50 [2] [µM]	IC50 [3] [µM]	IC50 (human thrombin [4]) [µM]	IC50 (human thrombin [5]; Table 1, read-out: dTT IC50) [µM]	Ki (human thrombin [1]; Table 2, read-out: Ki) [µM]	M.O.T (min)+/-sem (carotid artery in rats; ivb + inf 0.5-30 (iv bolus mg/kg, infusion μg/kg/min)) [min]	M.O.T (min)+/-sem (carotid artery in rats; ivb + inf 0.75-50 (iv bolus mg/kg, infusion μg/kg/min)) [min]	IC50 (human thrombin [5]; Table 2, read-out: dTT) [µM]
N=C(N)NCCC[C@H](NC(=O)[C@@H]1CSC2CC[C@@H](CC3CCCCC3)C(=O)N21)C(=O)N1CCCC(C(N)=O)C1 (stereo partly drawn) [Compound 0040, 6S-cyclohexylmethylhexahydro-5-oxo-5H-thiazolo[3,2-a]pyridine-3R-carboxamido((S)-Argnipecotamide)]	19	> 100	> 100	> 450	207				
CC(SCC(=O)C(CCCNC(=N)N)NC(=O)[C@@H]1CSC2CC[C@@H](CC3CCCCC3)C(=O)N21)C(=O)O (stereo partly drawn) [Compound 0070, 6S-cyclohexylmethylhexahydro-5-oxo-5H-thiazolo[3,2-a]pyridine-3R-carboxamido(1-carboxy-2-methyl-3-thiobutylketoarginine)]	4.4	2.1	22	78	25				
N=C(N)NCCCC(NC(=O)[C@@H]1CSC2CC[C@@H](CC3CCCCC3)C(=O)N21)C(=O)Cc1ccccc1 (stereo partly drawn) [Compound 0020, 6S-cyclohexymethyl hexahydro-5-oxo-5H-thiazolo[3,2-a]pyridine-3R-carboxamido(benzylketoarginine)]	2.2	14.2	18	> 450	22				
N=C(N)NCCCC(NC(=O)[C@@H]1CSC2CC[C@@H](CC3CCCCC3)C(=O)N21)C(=O)CSCC(=O)O (stereo partly drawn) [Compound 0065, 6S-cyclohexylmethylhexahydro-5-oxo-5H-thiazolo[3,2-a]pyridine-3R-carboxamido(1-carboxy-3-thiobutylketoarginine)]	32.7	52	47.5	200	42				
CCCCC(=O)C(CCCNC(=N)N)NC(=O)[C@@H]1CSC2CC[C@@H](Cc3ccccc3)C(=O)N21 (stereo partly drawn) [Compound 0010, 6S-benzylhexahydro-5-oxo-5H-thiazolo[3,2-a]pyridine-3R-carboxamido (butyl ketoarginine)]	4.6	19	21	> 450	89.5				
CCCC(=O)C(CCCNC(=N)N)NC(=O)[C@@H]1CSC2CC[C@@H](Cc3ccccc3)C(=O)N21 (stereo partly drawn) [Compound 0005, 6S-benzylhexahydro-5-oxo-5H-thiazolo[3,2-a]pyridine-3R-carboxamido (propyl ketoarginine)]	4			> 450	47				
N=C(N)NCCC[C@H](NC(=O)[C@@H]1CSC2CC[C@@H](CC3CCCCC3)C(=O)N21)C(=O)N1CCC(C(N)=O)CC1 (stereo partly drawn) [Compound 0045, 6S-cyclohexylmethylhexahydro-5-oxo-5H-thiazolo[3,2-a]pyridine-3R-carboxamido((S)Argisonipecotamide)]	74			> 450	415				
COC(=O)CCC1(C(CCCNC(=N)N)NC(=O)[C@@H]2CSC3CC[C@@H](CC4CCCCC4)C(=O)N32)SCCS1 (stereo partly drawn) [Compound 0025, 6S-cyclohexyl methyl hexahydro-5-oxo-5H-thiazolo[3,2-a]pyridine-3R-carboxamido(carbmethoxypropylcyclodithioketalarginine)]	53	> 100	> 100	> 450	> 625				
N=C(N)NCCC[C@H](NC(=O)[C@@H]1CSC2CC[C@@H](CC3CCCCC3)C(=O)N21)C(=O)N1CCCC[C@@H]1C(=O)O (stereo partly drawn) [Compound 0030, 6S-cyclohexylmethyl hexahydro-5-oxo-5H-thiazolo[3,2-a]pyridine-3R-carboxamido((S)-Arg-(R)-pipecolilic acid)]	8.6	> 100	> 100	320	67				
N=C(N)NCCCC(NC(=O)[C@@H]1CSC2CC[C@@H](Cc3ccccc3)C(=O)N21)C1(CCCCC(N)=O)SCCS1 (stereo partly drawn) [Compound 0050, 6S-benzylhexahydro-5-oxo-5H-thiazolo[3,2-a]pyridine-3R-carboxamido(carboxamidopentylcyclodithioketalarginine)]	62			> 450					
COC(=O)CCC(=O)C(CCCNC(=N)N)NC(=O)[C@@H]1CSC2CC[C@@H](Cc3ccccc3)C(=O)N21 (stereo partly drawn) [Compound 0015, 6S-benzylhexahydro-5-oxo-5H-thiazolo[3,2-a]pyridine-3R-carboxamido(propylcarbmethoxyketoarginine)]	16	> 100	> 100	> 450	162				
N=C(N)NCCCC(NC(=O)[C@@H]1CSC2CC[C@@H](CC3CCCCC3)C(=O)N21)C(=O)C[n+]1ccc2ccccc2c1 (stereo partly drawn) [Compound 0080, 6S-cyclohexylmethylhexahydro-5-oxo-5H-thiazolo[3,2-a]pyridine-3R-carboxamido(iso-quinoliniummethylketoarginine)]	0.048	0.38	0.4		0.375				
N=C(N)NCCCC(NC(=O)[C@@H]1CSC2CC[C@@H](Cc3ccccc3)C(=O)N21)C1(CCC(N)=O)SCCS1 (stereo partly drawn) [Compound 0035, 6S-benzylhexahydro-5-oxo-5H-thiazolo[3,2-a]pyridine-3R-carboxamido(carboxamidopropylcyclodithioketalarginine)]	34	> 100	> 100	> 450	319				
N=C(N)NCCCC(NC(=O)[C@@H]1CC[C@H]2CN(C(=O)c3ccccc3)CC(=O)N21)C(=O)c1nccs1 (stereo partly shown) [Compound 0335, 2-Benzoyl-4-oxo-octahydro-pyrrolo[1,2-a]pyrazine-6-carboxylic acid[4-guanidino-1-(thiazole-2-carbonyl)-butyl]-amide]						0.025	41.5 ± 7.27	45.8 ± 14.2	0.138
